From PMC7738869, “A novel STAT3 inhibitor W2014-S regresses human non-small cell lung cancer xenografts and sensitizes EGFR-TKI acquired resistance” (Theranostics, 2021) come the findings set out here.

One test relates to PC-9/GR cells. Briefly: Cell apoptosis assay (Annexin V-FITC/PI flow cytometry), PC-9/GR. The format is cell-based, human. The note with it: gefitinib 2 μM and/or W2014-S 1 μM, 72 h. How it is done: Briefly, aliquots of 2 × 10^5 cells were seeded into 6-well plates and incubated for 24 h at 37 °C. […] After trypsinization and gently washing cells once with medium, the cells were washed twice with cold PBS. The precipitation was resuspended by 400 μL of 1 × binding buffer, and then resuspended cells were transferred into new 1.5 mL EP tubes. Then 3 μL of Annexin V-FITC and 5 μL of propidium iodide were added to the resuspended cells with further incubation at room temperature for 15 min in the dark. The analysis was done on Guava easyCyte (USA) and FlowJo 7.6 software.
On the technique in general: Flow cytometry measures light scatter and fluorescence of single cells or particles in a stream.

Another test deals with PC-9/GR xenografts. The settings on record: gefitinib intragastric 20 mg/kg per day, W2014-S 10 mg/kg/day, 21 d.
The subject of test [1] is A549 cells. The test is described as follows: Cell viability assay (CCK-8), A549. The format is cell-based. The settings on record: Homo sapiens, A549, 72 h, read-out: IC50 cell proliferation. How it is done: (§1) Cell proliferation was measured using the Cell Counting Kit-8 (CCK-8, B34304, Bimake, USA). A549 (2 × 10^3/100 μL/well), PC-9 (3 × 10^3/100 μL/well) or PC-9/GR cells (3 × 10^3/100 μL/well) were plated into each well of 96-well plates (Costar, USA). […] Then, 10 μL of CCK-8 was added to each well, and cells were incubated for 1-4 h until the color of untreated controls turned to orange. The absorbance (A) was measured by a microplate reader (FLUOstar Omega-ACU, USA) at test and reference wavelengths of 450 nm. The percentage of growth was calculated as Cell viability (%) = [A (Compound +) - A (Blank) ] / [A (Compound -) - A (Blank) ] × 100%. Cell viability meant proliferation of cells. Each experiment was done at least in triplicate, and thrice independently.

Test [2] has as its system A549 cells. Briefly: Colony formation assay, A549. The class given is cell-based, human. The note with it: A549, as low as 0.3 μM.
Test [3] has as its target full-length wild-type STAT3 (Homo sapiens, UniProt P40763). The test is described as follows: Surface plasmon resonance analysis of binding to STAT3. The note with it: SPR. The procedure:
Biacore 8K and Biacore Insight Evaluation software were used to analyze the interaction between the agents and the protein full-length wild-type STAT3 to detect the binding affinity. Purified STAT3 (100 μg/mL) without Tris and glycerin was injected onto the CM5 Chip (GE, USA) for immobilization. Several concentrations of W2014-S or W2014-R dissolved in running buffer (1×PBS with filtration, 0.01% DMSO) were flown over the chip to produce response signals. The kinetics and affinities were calculated by the Biacore Insight Evolution software, and the results were determined as the binding affinity (KD).
(In general: SPR reads the build-up and loss of mass on a sensor chip optically.)

Test [4] concerns A549 cells. The test is described as follows: Transwell cell invasion assay, A549. The settings on record: A549, 1 μM.
Protocol: Transwell invasion assays were performed as previously reported [37] using Transwell chamber (Costar, USA). […] Data from triplicates experiments were pooled and plotted as shown.
Test [5] deals with PC-9 cells. Briefly: Colony formation assay, PC-9. The format is cell-based, human. The note with it: PC-9, as low as 0.3 μM.
In test [6] the test system is PC-9 cells. The test is described as follows: Cell viability assay (CCK-8), PC-9. The class given is cell-based. The settings on record: Homo sapiens, PC-9, 72 h, read-out: IC50 cell proliferation. The procedure: as §1
The test system of test [7] is A549 cells. Briefly: Wound healing assay for migration. The class given is cell-based, human. The note with it: 48 h. How it is done:
The motility of cells was measured by wound healing assay. Cells were seeded into 6-well plates and cultured to 90-100% confluent after 24 h. Wounds were made in each well of 6-well plates using pipette tips. […] The migration of cells was visualized under a microscope (4 ×, Nikon, Japan) and photographed in different time points (0 and 48 h).

Sequence of full-length wild-type STAT3 (P40763 whole entry): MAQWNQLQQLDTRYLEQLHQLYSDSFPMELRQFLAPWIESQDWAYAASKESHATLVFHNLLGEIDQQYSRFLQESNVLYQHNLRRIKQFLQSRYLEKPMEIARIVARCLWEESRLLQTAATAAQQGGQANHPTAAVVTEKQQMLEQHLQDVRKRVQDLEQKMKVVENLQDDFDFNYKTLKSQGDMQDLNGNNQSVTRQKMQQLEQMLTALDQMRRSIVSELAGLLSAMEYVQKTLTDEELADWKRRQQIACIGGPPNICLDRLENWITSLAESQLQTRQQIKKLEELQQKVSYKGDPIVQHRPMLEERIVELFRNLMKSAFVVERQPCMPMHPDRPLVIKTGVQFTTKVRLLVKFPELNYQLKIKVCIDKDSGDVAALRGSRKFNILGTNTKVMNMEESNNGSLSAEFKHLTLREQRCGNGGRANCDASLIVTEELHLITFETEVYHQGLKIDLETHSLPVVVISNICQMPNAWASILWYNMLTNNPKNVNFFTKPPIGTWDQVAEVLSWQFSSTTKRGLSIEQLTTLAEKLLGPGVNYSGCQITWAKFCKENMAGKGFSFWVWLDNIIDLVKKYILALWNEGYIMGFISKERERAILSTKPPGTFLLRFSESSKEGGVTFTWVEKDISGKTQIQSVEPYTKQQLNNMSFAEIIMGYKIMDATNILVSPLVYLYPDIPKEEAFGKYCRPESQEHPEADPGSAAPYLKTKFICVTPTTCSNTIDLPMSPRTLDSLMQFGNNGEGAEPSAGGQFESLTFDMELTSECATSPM
Protocol for PC-9/GR xenografts: For PDX model, the PDX sample was from The Jackson Laboratory. […] The tumor sample were cut into approximately 1 mm^3, and the tissue was pushed under skin of mice by TROCHAR. When tumor volumes reached approximately 100 mm^3, mice were randomly distributed into groups of 7 mice. […] Tumor size was measured every two days by vernier caliper. The average tumor volume in each group was calculated based on the equation for a prolate spheroid (tumor volume = (short-diameter)^2 × large-diameter × π / 6 ) and expressed in mm^3.

For `COc1cc2ncnc(Nc3ccc(F)c(Cl)c3)c2cc1OCCCN1CCOCC1` [Gefitinib, reference compound], in the test with PC-9/GR cells, the Q1 stood at 0.103%, the Q2 is recorded as 4.61%, the Q3 came out at 3.05% and the Q4 is recorded as 92.2%. Besides, the xenograft tumor growth entry in the test with PC-9/GR xenografts was “slight inhibitory effect”.

As a reminder, the Kd is the free concentration of one partner at which half of the binding sites on the other are occupied at equilibrium, for simple one-to-one binding. Read a high Kd as lower affinity. `C[C@@H](Oc1ccc(-c2nc3nc(C4=CCN(C(=O)OC(C)(C)C)CC4)ccc3[nH]2)cc1)c1ccccc1` [W2014-R]: the IC50 turned out to be 2420 nM with A549 cells [1] and 2660 nM in the test on PC-9 cells [6]. Further, the colony formation entry in the test on A549 cells [2] and with PC-9 cells [5] was “significantly suppressed the colony formation” each time. Moreover, the Kd in test [3] worked out at 3390 nM. Further, the cell invasion result in the test with A549 cells [4] is reported as “not”. Further, the cell migration entry in the test on A549 cells [7] is reported as “slightly inhibition”.
